# According to patent US20220096529A1, “2-HYDROXYPROPYL-BETA-CYCLODEXTRIN (HPBETACD) FOR USE IN THE TREATMENT OF BREAST CANCER” (UNIVERSITY OF THE WITWATERSRAND, JOHANNESBURG, priority 2019, published 2022):
# Read-outs that look alike come from different tables or passages of the source.
# How the values were obtained:
# HEK-293 cells [1] = format: cell-based, human
# Description: (§1) Cells were cultured in appropriate medium supplemented with 10% FCS, penicillin (100 U/ml), and streptomycin (100 μg/ml) (Gibco) at 5% CO2 in a 37° C. incubator.
# (§2) Four different cell lines were used MCF7 (ER+). MDA-MB-231 (ER−), MRC-5 (Lung Fibroblasts) and HEK-293 (Embryonic kidney). MRC-5 and/or HEK-293 were used as control cell lines depending on availability.
# (§3) In order to determine whether HPβCD has the ability to induce cancer cell death a primary screening using an MTT assay was performed. Three different time points 24 hrs.
# MRC-5 cells [2] = format: cell-based, human; conditions: for concentration for 50% growth inhibition in normal cells compared to cancerous cells: MRC-5 and HEK-293 vs cancerous cells
# Description: as §1, §2, §3
# HEK-293 cells [3] = assay: Cell-APOPercentage apoptosis assay; format: cell-based, human; conditions: 24 hrs
# Description: (§4) APOPercentage assays gives a measure of overall apoptosis in the cell. Apoptosis is an early event and therefore just one time point (24 hrs) was selected and tested on four cell lines MCF7, MDA-MB-231, MRC-5 & HEK-293 cells. 10 μM Plumbagin was used a positive control as opposed to 40 μM from MTT because higher concentrations of plumbagin was way too toxic for the cells and to capture the early activity, optimal dosage was required. To confirm the growth inhibition obtained from the MTT assay was actually due to apoptosis, a Cell-APOPercentage Apoptosis assay was performed according to known methods.
# MCF7 cells [4] = assay: Cell-APOPercentage apoptosis assay; format: cell-based, human; conditions: MCF7, 10 mM HPβCD, 24 hrs
# Description: as §4
# MDA-MB-231 cells [5] = assay: Cell-APOPercentage apoptosis assay; format: cell-based, human; conditions: 24 hrs
# Description: as §4
# MRC-5 cells [6] = assay: Cell-APOPercentage apoptosis assay; format: cell-based, human; conditions: 24 hrs
# Description: as §4
# MCF7 cells [7] = assay: Cholesterol quantification assay; format: cell-based, human; conditions: MCF7, all concentrations 1, 5, 10, 20, 50 mM
# Description: (§5) To investigate if the apoptosis observed from all the above assays was due to cholesterol depletion, a cholesterol assay was performed on all three cell lines: MCF7, MDA-MB-231 and MRC-5. HPβCD and the positive PL, a known cholesterol depletor were treated for 24 hrs.
# (§6) HPβCD and the positive (40 μM PL) were treated for 24 hrs. This assay gave us an estimate of total cholesterol, cholesterol esters and free cholesterol.
# MDA-MB-231 cells [8] = assay: Cholesterol quantification assay; format: cell-based, human; conditions: MDA-MB-231, all concentrations 1, 5, 10, 20, 50 mM
# Description: as §5, §6
# MRC-5 cells [9] = assay: Cholesterol quantification assay; format: cell-based, human
# Description: as §5, §6
# MCF7 cells [10] = assay: Filipin cholesterol staining; format: cell-based, human
# MDA-MB-231 cells [11] = assay: Filipin cholesterol staining; format: cell-based, human
# Description: To further validate cholesterol depletion as observed from the cholesterol assay above a Filipin based cholesterol staining was conducted. MCF7. MDA-MB-231 cells were used. HEK-293 cells could not be used due to unavailability. HPβCD and the positive (5 mM MBCD) were treated for 24 hrs. Like PL, MBCD is also a well know cholesterol depletor.
# Fluorescence microscopy has been a robust tool for investigating the intracellular transport of proteins. Filipin specifically binds to cholesterol and can give an overall quantification and has been more recently been clinically used in the diagnosis of Type C Niemann-Pick disease.
# MCF7 cells [12] = assay: Mice xenograft, ER+ breast cancer; format: in vivo, Nude Mice, MF-1 strain
# Description: Since the potency of HPβCD against breast cancer was established in our in vitro assays, a thorough investigation in a mice model was conducted (Nude Mice. MF-1 strain). MCF-7 and MDA-MB-231 cells were injected in 32 mice (16 for each cell type) and after tumour development, was treated with HPβCD (3000 mg/kg b.w.). Thrice a week dose treatment plan was followed throughout the study.
# To examine if HPβCD can be used as a future anti-breast cancer drug, mice xenografts were prepared. MCF7 cells (5 million) cells were injected in 16 mice with weekly β-estradiol supplementation. The study for triple negative induced breast cancer (MDA-MB-231) is complete. Up to 4 million cells were injected in 16 mice. This was subdivided in three more groups namely: Late stage, intermediate stage and early stage estrogen negative cancer. 4 mice were grouped as untreated (not receiving HPβCD), 4 for treated (late stage), 3 for treated (intermediate stage) and 3 for treated (early stage).
# The anticancer effect of HPβCD on estrogen positive MCF7 cells induced tumours in xenograft mice model was also tested. The study was not completed as only 4 out of 16 mice developed tumours. But the mice who developed tumour were treated with HPβCD and 9.6% tumour reduction was observed (FIGS. 49 and 50).
# MCF7 cells [13] = assay: RT2 Profiler PCR Array Human Breast cancer; format: cell-based
# Excerpt: (§7) PCR (polymerase chain reaction) arrays were run to identify gene expression changes in cancer cells after treatment with HPβCD. The differentially expressed genes along with their significance for cancer, some genes were selected for further drug-protein interaction studies.
# MDA-MB-231 cells [14] = assay: RT2 Profiler PCR Array Human Breast cancer; format: cell-based
# Excerpt: as §7
# MDA-MB-231 cells [15] = assay: BODIPY lipid droplet staining; format: cell-based, human
# Excerpt: Lipid droplets store cholesterol and HPβCD was able to reduce accumulation and storage of cholesterol in cancer cells.
substance,measurement,setting,value
2-hydroxypropyl-β-cyclodextrin [HPβCD],IC50,"HEK-293 cells [1]; HEK-293, 24 hrs",22.8 mM
same,IC50,"HEK-293 cells [1]; HEK-293, 48 hrs",26.5 mM
same,IC50,"HEK-293 cells [1]; HEK-293, 72 hrs",50.3 mM
same,growth inhibition,"HEK-293 cells [1]; HEK-293, till 10 mM HPβCD, 24 hrs and 48 hrs",absolutely zero growth inhibition
same,IC50,"MRC-5 cells [2]; MRC-5, 24 hrs",20.7 mM
same,IC50,"MRC-5 cells [2]; MRC-5, 48 hrs",19.9 mM
same,IC50,"MRC-5 cells [2]; MRC-5, 72 hrs",41.7 mM
same,growth inhibition,"MRC-5 cells [2]; MRC-5, till 10 mM HPβCD, 24 hrs and 48 hrs",absolutely zero growth inhibition
same,concentration for 50% growth inhibition in normal cells compared to cancerous cells,MRC-5 cells [2]; 24 hrs,almost double
same,concentration for 50% growth inhibition in normal cells compared to cancerous cells,MRC-5 cells [2]; 72 hrs,almost five times
same,cell death (apoptosis),"HEK-293 cells [3]; HEK-293, 20 mM HPβCD",~15%
same,cell death (apoptosis),"HEK-293 cells [3]; HEK-293, 50 mM HPβCD",~18%
same,cell death (apoptosis),"HEK-293 cells [3]; HEK-293, till 10 mM HPβCD",almost zero percentage cell death
same,cell death (apoptosis),MCF7 cells [4],around 45%
same,cell death (apoptosis),"MDA-MB-231 cells [5]; MDA-MB-231, 10 mM HPβCD",around 40%
same,maximum cell death (apoptosis),"MDA-MB-231 cells [5]; MDA-MB-231, 50 mM HPβCD",~70%
same,cell death (apoptosis),"MRC-5 cells [6]; MRC-5, 20 mM HPβCD",~15%
same,cell death (apoptosis),"MRC-5 cells [6]; MRC-5, 50 mM HPβCD",~18%
same,cell death (apoptosis),"MRC-5 cells [6]; MRC-5, till 10 mM HPβCD",almost zero percentage cell death
same,total cholesterol content compared to untreated,MCF7 cells [7],reduced total cholesterol content
same,total cholesterol content compared to untreated,MDA-MB-231 cells [8],reduced total cholesterol content
same,total cholesterol reduction compared to untreated,"MRC-5 cells [9]; MRC-5, 10 mM HPβCD, 24 hrs",more than 50%
same,total cholesterol content compared to untreated,"MRC-5 cells [9]; MRC-5, all concentrations 1, 5, 10, 20, 50 mM",reduced total cholesterol content
same,Filipin fluorescence compared to untreated,"MCF7 cells [10]; MCF7, 10 mM HPβCD, 24 hrs, ImageJ",four times less fluorescence
same,cholesterol (Filipin staining) in treated vs untreated cells,"MCF7 cells [10]; MCF7, FIG. 51",decreased cholesterol
same,Filipin fluorescence compared to untreated,"MDA-MB-231 cells [11]; MDA-MB-231, 10 mM HPβCD, 24 hrs, ImageJ",six times less fluorescence
same,cholesterol (Filipin staining) in treated vs untreated cells,"MDA-MB-231 cells [11]; MDA-MB-231, FIG. 46",decreased cholesterol
same,average tumour size,"MCF7 cells [12]; ER+ MCF7 mice, treated for 5 weeks",5.3 mm^3
same,tumour outcome,"MCF7 cells [12]; Mouse No. 29, 30 and 32, treated for 5 weeks",healed completely
same,tumour size,"MCF7 cells [12]; Mouse No. 31, treated for 5 weeks",21.28 mm^3
same,ADAM23 gene expression,MCF7 cells [13],downregulated by many folds
same,CTSD gene expression,MCF7 cells [13],significantly downregulated
same,ADAM23 gene expression,MDA-MB-231 cells [14],upregulated
same,Akt1 gene expression,MDA-MB-231 cells [14],upregulated
same,CTSD gene expression,MDA-MB-231 cells [14],upregulated
same,GATA3 gene expression,MDA-MB-231 cells [14],downregulated
same,SFRP1 gene expression,MDA-MB-231 cells [14],upregulated
same,lipid droplets (BODIPY) in treated vs untreated cells,MDA-MB-231 cells [15],decrease in lipid droplets
